Inhibition data for 19 compounds are collected here from patent publication US20080181866A1, “Amido Anti-viral Compounds” (Genelabs Technologies, Inc., priority 2006, published 2008).

The test system of this test is HCV replication. Nature of the test: HCV replicon assay (luciferase) in ET (Huh-lucubineo-ET) cell line. The class given is cell-based. To be noted: Hepatitis C virus, tested at 5 μM; ET replicon cells; luciferase activity measured 48-72 hours later; relative to no compound control. The procedure, abridged: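 Huh-lucubineo-ET cells stably carry a subgenomic replicon with a firefly luciferase–ubiquitin–neo fusion and adaptive NS3-5B mutations; they were seeded 24 h before compound addition (0.1 nM–50 μM, 0.5% DMSO). Luciferase was read 48–72 h later as % inhibition versus no-compound control, with parallel WST-1 cytotoxicity. EC50 and TC50 came from 10-point 2-fold dilutions fitted to a Hill equation.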

For `Cn1ccnc1C1SC[C@@H](C(=O)Nc2nc(-c3ccc(C(=O)NC4CC4)cc3)cs2)N1C(=O)OCc1ccccc1` (single isomer, unassigned) [Compound 7054, 4-[4-(4-Cyclopropylcarbamoyl-phenyl)-thiazol-2-ylcarbamoyl]-2-(1-methyl-1H-imidazol-2-yl)-thiazolidine-3-carboxylic acid benzyl ester], testing at 5 µM gave an inhibition of 94.1%.
As for `COCCNC(=O)c1ccc(NC(=O)[C@@H]2CSC(c3ccncc3)N2C(=O)OCc2ccccc2)cc1` (stereo in doubt) [Compound 7135, 4-[4-(2-Methoxy-ethylcarbamoyl)-phenylcarbamoyl]-2-pyridin-4-yl-thiazolidine-3-carboxylic acid benzyl ester], the figure is 22.1%; as for `O=C(NC1CC1)c1ccc(-c2csc(NC(=O)[C@@H]3CSC(c4ccncc4)N3C(=O)OCc3ccccc3)n2)cc1` (mixture of isomers) [Compound 7031, (R)-4-[4-(4-Cyclopropylcarbamoyl-phenyl)-thiazol-2-ylcarbamoyl]-2-pyridin-4-yl-thiazolidine-3-carboxylic acid benzyl ester], 99.8%; as for `O=C(NC1CC1)c1ccc(-c2csc(NC(=O)[C@@H]3CC[C@H](c4ccncc4)N3C(=O)OCc3ccccc3)n2)cc1` [Compound 7003, (2S,5R)-2-[4-(4-Cyclopropylcarbamoyl-phenyl)-thiazol-2-ylcarbamoyl]-5-pyridin-4-yl-pyrrolidine-1-carboxylic acid benzyl ester], 100%.
`COc1ccccc1C1SC[C@@H](C(=O)Nc2nc(-c3ccc(C(=O)NC4CC4)cc3)cs2)N1C(=O)OCc1ccccc1` (mixture of isomers) [Compound 7047, (R)-4-[4-(4-Cyclopropylcarbamoyl-phenyl)-thiazol-2-ylcarbamoyl]-2-(2-methoxy-phenyl)-thiazolidine-3-carboxylic acid benzyl ester]: the inhibition – broadly, the drop in the measured response relative to a control, in per cent – at 5 µM was determined as 99.6%.
As for `N#Cc1cccc(C2OC[C@@H](C(=O)Nc3nc(-c4ccc(C(=O)NC5CC5)cc4)cs3)N2C(=O)OCc2ccccc2)c1` (stereo in doubt) [Compound 7081, 2-(3-Cyano-phenyl)-4-[4-(4-cyclopropylcarbamoyl-phenyl)-thiazol-2-ylcarbamoyl]-oxazolidine-3-carboxylic acid benzyl ester], the figure is 100%; as for `CC(C)(C)OC(=O)N1[C@@H](c2ccccc2)CC[C@H]1C(=O)Nc1nc(-c2ccc(C(=O)NC3CC3)cc2)cs1` [Compound 7005, (2S,5R)-2-[4-(4-Cyclopropylcarbamoyl-phenyl)-thiazol-2-ylcarbamoyl]-5-phenyl-pyrrolidine-1-carboxylic acid tert-butyl ester], 97.8%; as for `COC(=O)CCC1SC[C@@H](C(=O)Nc2nc(-c3ccc(C(=O)NC4CC4)cc3)cs2)N1C(=O)OCc1ccccc1` (stereo partly shown) [Compound 7121, 4-[4-(4-Cyclopropylcarbamoyl-phenyl)-thiazol-2-ylcarbamoyl]-2-(2-methoxycarbonyl-ethyl)-thiazolidine-3-carboxylic acid benzyl ester], 99.8%.
The figure for `O=C(NC1CC1)c1ccc(-c2csc(NC(=O)[C@@H]3CSC(c4ccc(CN5CCOCC5)cc4)N3C(=O)OCc3ccccc3)n2)cc1` (stereo partly shown) [Compound 7087, 4-[4-(4-Cyclopropylcarbamoyl-phenyl)-thiazol-2-ylcarbamoyl]-2-(4-morpholin-4-ylmethyl-phenyl)-thiazolidine-3-carboxylic acid benzyl ester] is 99.6%.
As for `CN(C(=O)[C@@H]1CSC(c2ccncc2)N1C(=O)OCc1ccccc1)c1nc(-c2ccc(C(=O)NC3CC3)cc2)cs1` (stereo partly shown) [Compound 7106, 4-{[4-(4-Cyclopropylcarbamoyl-phenyl)-thiazol-2-yl]-methyl-carbamoyl}-2-pyridin-4-yl-thiazolidine-3-carboxylic acid benzyl ester], the inhibition at 5 µM was determined as 32.9%.
The figure for `CN(C)c1ncc(C2SC[C@@H](C(=O)Nc3nc(-c4ccc(C(=O)NC5CC5)cc4)cs3)N2C(=O)OCc2ccccc2)cn1` (stereo in doubt) [Compound 7131, 4-[4-(4-Cyclopropylcarbamoyl-phenyl)-thiazol-2-ylcarbamoyl]-2-(2-dimethylamino-pyrimidin-5-yl)-thiazolidine-3-carboxylic acid benzyl ester] is 100%.
As for `O=C(NC1CC1)c1ccc(-c2csc(NC(=O)[C@@H]3C[C@@H](Cc4ccccc4)CN3C(=O)OCc3ccccc3)n2)cc1` [Compound 7006, (2S,4R)-4-Benzyl-2-[4-(4-cyclopropylcarbamoyl-phenyl)-thiazol-2-ylcarbamoyl]-pyrrolidine-1-carboxylic acid benzyl ester], the figure is 98.4%; as for `O=C(NC1CC1)c1ccc(-c2csc(NC(=O)[C@@H]3CSC(c4ccncc4F)N3C(=O)OCc3ccccc3)n2)cc1` (mixture of isomers) [Compound 7008, (R)-4-[4-(4-Cyclopropylcarbamoyl-phenyl)-thiazol-2-ylcarbamoyl]-2-(3-fluoro-pyridin-4-yl)-thiazolidine-3-carboxylic acid benzyl ester], 100%.
As for `O=C(NC1CC1)c1ccc(-c2csc(NC(=O)[C@@H]3CSC(c4ccccc4F)N3C(=O)OCc3ccccc3)n2)cc1` (mixture of isomers) [Compound 7037, (R)-4-[4-(4-Cyclopropylcarbamoyl-phenyl)-thiazol-2-ylcarbamoyl]-2-(2-fluoro-phenyl)-thiazolidine-3-carboxylic acid benzyl ester], the figure is 100%; as for `COc1ccc(CNC(=O)Cc2cccc(NC(=O)[C@@H]3CSC(c4ccncc4)N3C(=O)OCc3ccccc3)c2)cc1` (stereo partly shown) [Compound 7128, 4-{3-[(4-Methoxy-benzylcarbamoyl)-methyl]-phenylcarbamoyl}-2-pyridin-4-yl-thiazolidine-3-carboxylic acid benzyl ester], 97.5%.
With `CCCC(C)C(=O)N1C(C2CCOCC2)SC[C@H]1C(=O)Nc1nc(-c2ccc(C(=O)NC3CC3)cc2)cs1` (stereo in doubt) [Compound 7103, 3-(2-Methyl-pentanoyl)-2-(tetrahydro-pyran-4-yl)-thiazolidine-4-carboxylic acid [4-(4-cyclopropylcarbamoyl-phenyl)-thiazol-2-yl]-amide], the inhibition at 5 µM stood at 99.8%.
The figure for `O=C(NC1CC1)c1ccc(-c2csc(NC(=O)[C@@H]3CC[C@H](c4ccc(CN5CCOCC5)cc4)N3C(=O)OCc3ccccc3)n2)cc1` [Compound 7045, (2S,5R)-2-[4-(4-Cyclopropylcarbamoyl-phenyl)-thiazol-2-ylcarbamoyl]-5-(4-morpholin-4-ylmethyl-phenyl)-pyrrolidine-1-carboxylic acid benzyl ester] is 100%; for `O=C(NC1CC1)c1ccc(-c2csc(NC(=O)[C@@H]3COC(CC4CCOCC4)N3C(=O)OCc3ccccc3)n2)cc1` (stereo in doubt) [Compound 7095, 4-[4-(4-Cyclopropylcarbamoyl-phenyl)-thiazol-2-ylcarbamoyl]-2-(tetrahydropyran-4-ylmethyl)-oxazolidine-3-carboxylic acid benzyl ester] it is 99.9%; for `O=C(NC1CC1)c1ccc(-c2csc(NC(=O)[C@@H]3CSC(c4ncco4)N3C(=O)OCc3ccccc3)n2)cc1` (mixture of isomers) [Compound 7056, (R)-4-[4-(4-Cyclopropylcarbamoyl-phenyl)-thiazol-2-ylcarbamoyl]-2-oxazol-2-yl-thiazolidine-3-carboxylic acid benzyl ester] it is 99.9%.
